Data: PMC11279468, “Exploring a New Generation of Pyrimidine and Pyridine Derivatives as Anti-Influenza Agents Targeting the Polymerase PA–PB1 Subunits Interaction” (Pharmaceutics, 2024)
Where two headings read alike, the source gives them in different places.

What was measured:
[1] = test system: Influenza virus strain A/PR/8/34 (H1N1); experiment: microbe, parasite or virus in culture; conditions: unidentified influenza virus, MDCK, read-out: EC50 (PRA)
in vitro = conditions: dog
Method: The cytotoxicity of compounds was tested in MDCK cells using the 3-(4,5-dimethylthiazol-2-yl)-2,5-diphenyl tetrazolium bromide (MTT) method, as previously reported [32]. Briefly, MDCK cells (seeded at a density of 2 × 10^4 per well) were grown in 96-well plates for 24 h and then treated with serial dilutions of test compounds, or DMSO as a control, in DMEM supplemented with 10% FBS. After incubation at 37 °C for 48 h, 5 mg/mL of MTT (Sigma, Tokyo, Japan) in PBS was added into each well and incubated at 37 °C for a further 4 h. Successively, a solubilization solution was added to lyse the cells and incubated overnight at 37 °C. Finally, optical density was read at the wavelength of 570 nm on a microtiter plate reader (MultiSkan FC, ThermoFisher Scientific).

[2] = biological target: T1, PA–PB1 interaction (6His-PA(239–716) / GST-PB1(1–25)) (Influenza A virus, UniProt P03433); experiment: biochemical; type: binding
[3] = test system: Influenza virus strain A/PR/8/34 (H1N1); conditions: plaque reduction assay in MDCK cells; cited from earlier work
[4] = biological target: T1, PA–PB1 interaction (6His-PA(239–716) / GST-PB1(1–25)); conditions: read-out: IC50 (ELISA PA–PB1), cited from earlier work
MDCK cells = conditions: cited from earlier work
HEK 293T cells = conditions: cited from earlier work

| SMILES | EC50 [1] [µM] | melting point [°C] | CC50 at 48 h (in vitro) [µM] | IC50 [2] [µM] | activity as PA–PB1 disruptors (in words) [2] | EC50 [3] [µM] | IC50 ([4]; ELISA PA–PB1 interaction) [µM] | CC50 (MDCK cells) [µM] | IC50 ([4]; ELISA-based PA–PB1 interaction assay) [µM] | CC50 (HEK 293T cells) [µM] |
| --- | --- | --- | --- | --- | --- | --- | --- | --- | --- | --- |
| Cc1cccc(NC(=O)CSc2nc(-c3ccccc3)cc(-c3ccc(Cl)cc3)n2)c1 [Compound 2c, 2-{[4-(4-Chlorophenyl)-6-phenylpyrimidin-2-yl]thio}-N-(m-tolyl)acetamide] | 45.5 ± 2.1 | 204 to 206 | > 250 | 86 ± 5.3 | – | – | – | – | – | – |
| COC(=O)[C@H](Cc1c[nH]cn1)NC(=O)CSc1cc(-c2ccccc2)cc(-c2ccc(F)cc2)n1 [Compound 3n, Methyl (2-((6-(4-fluorophenyl)-4-phenylpyridin-2-yl)thio)acetyl)-L-histidinate] | – | 155 to 156 | – | > 200 | – | – | – | – | – | – |
| Cc1cccc(NC(=O)CSc2nc(-c3ccccc3)cc(-c3cccc4ccccc34)n2)c1 [Compound 2f, 2-{[4-(Naphthalen-1-yl)-6-phenylpyrimidin-2-yl)thio)-N-(m-tolyl)acetamide] | 21.1 ± 8 | 147 to 148 | > 250 | > 200 | lack of activity as PA–PB1 disruptors | – | – | – | – | – |
| Cc1cccc(NC(=O)CSc2nc(-c3ccc(Cl)cc3)cc(-c3cccc4ccccc34)n2)c1 [Compound 2g, 2-{[4-(4-Chlorophenyl)-6-(naphthalen-1-yl)pyrimidin-2-yl]thio}-N-(m-tolyl)acetamide] | > 100 | 103 to 107 | > 250 | > 200 | – | – | – | – | – | – |
| Cc1cccc(NC(=O)CSc2cc(-c3ccccc3)cc(-c3ccccc3)n2)c1 [Compound 1e] | – | – | – | – | – | 7.3 ± 1.3 | 52.6 ± 9 | > 250 | – | – |
| Cc1cccc(NC(=O)CSc2nc(-c3ccc(F)cc3)cc(-c3cccc4ccccc34)n2)c1 [Compound 2h, 2-{[4-(4-Fluorophenyl)-6-(1-naphthyl)pyrimidin-2-yl]thio}-N-(3-methylphenyl)acetamide] | 14.8 ± 1.6 | 145 to 147 | > 250 | > 200 | lack of activity as PA–PB1 disruptors | – | – | – | – | – |
| COC(=O)[C@@H](NC(=O)CSc1cc(-c2ccccc2)cc(-c2ccccc2)n1)C(C)C [Compound 3i, Methyl (2-((4,6-diphenylpyridin-2-yl)thio)acetyl)-L-valinate] | – | 63 to 64 | – | > 200 | – | – | – | – | – | – |
| COC(=O)[C@H](Cc1ccc(O)cc1)NC(=O)CSc1nc(-c2ccc(F)cc2)cc(-c2ccc(F)cc2)n1 [Compound 3g, Methyl (2-((4,6-bis(4-fluorophenyl)pyrimidin-2-yl)thio)acetyl)-L-tyrosinate] | > 100 | – | > 250 | > 200 | – | – | – | – | – | – |
| CC[C@H](C)[C@H](NC(=O)CSc1nc(-c2ccccc2)cc(-c2ccc(F)cc2)n1)C(=O)OC [Compound 3b, Methyl (2-((4-(4-fluorophenyl)-6-phenylpyrimidin-2-yl)thio)acetyl)-L-isoleucinate] | > 100 | 94 to 95 | > 250 | > 200 | – | – | – | – | – | – |
| Cc1cccc(NC(=O)CSc2nc(-c3ccc(F)cc3)cc(-c3ccc(Cl)cc3)n2)c1 [Compound 2e, 2-{[4-(4-Chlorophenyl)-6-(4-fluorophenyl)pyrimidin-2-yl]thio}-N-(m-tolyl)acetamide] | 29.5 ± 0.7 | 213 to 217 | 206 ± 12 | 125 ± 37 | – | – | – | – | – | – |
| CCC(C)C(NC(=O)CSc1nc(-c2ccccc2)cc(-c2ccc(C)cc2)c1C#N)C(=O)OC (stereo not shown) [Compound 1b] | – | – | – | – | – | 39 ± 2 | – | > 250 | 36 ± 3 | 229 |
| Cc1cccc(NC(=O)CSc2nc(-c3ccc(F)cc3)cc(-c3ccc(F)cc3)n2)c1 [Compound 2b, 2-{[4,6-Bis(4-fluorophenyl)pyrimidin-2-yl]thio}-N-(m-tolyl)acetamide] | 62.5 ± 4.3 | 210 to 211 | > 250 | 137 ± 35 | – | – | – | – | – | – |
| COC(=O)[C@@H](NC(=O)CSc1nc(-c2ccc(F)cc2)cc(-c2ccc(F)cc2)n1)C(C)C [Compound 3e, Methyl (2-((4,6-bis(4-fluorophenyl)pyrimidin-2-yl)thio)acetyl)-L-valinate] | > 100 | 174 to 175 | > 250 | > 200 | – | – | – | – | – | – |
| Cc1cccc(NC(=O)CSc2cc(-c3ccccc3)cc(Sc3ccccc3)n2)c1 [Compound 2m, 2-{[4-Phenyl-6-(phenylthio)pyridin-2-yl]thio}-N-(m-tolyl)acetamide] | 32.3 ± 3.2 | 122 to 123 | > 250 | 141 ± 44 | – | – | – | – | – | – |
